For 85 compounds, IC50 results are on record in PubChem BioAssay AID1645868 (Buhrlage Lab, Dana-Farber Cancer Institute and Novartis …, 2021).

As a reminder, the IC50 is the midpoint of a concentration-inhibition curve.

Each structure is given as a SMILES string. Activity calls are given as the source filed them.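 The calls were made as follows: active = maximal percent inhibition of the deubiquitinase OTUD3 of at least 30% across the tested doses; inactive = the rest.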 Bounds are passed on as bounds.

The target of this assay is OTU domain-containing protein 3 (Homo sapiens) (UniProt Q5T2D3). Description: Validation of screening hits, potency titration, in vitro enzymatic, OTU domain-containing protein 3 DUB inhibitors (AID 1645868). The note with it: purified OTUD3, ubiquitin-rhodamine cleavage fluorescence, 2 h.
Chain of OTU domain-containing protein 3 (Homo sapiens) (Q5T2D3 whole entry, looked up, the tested form may be a part): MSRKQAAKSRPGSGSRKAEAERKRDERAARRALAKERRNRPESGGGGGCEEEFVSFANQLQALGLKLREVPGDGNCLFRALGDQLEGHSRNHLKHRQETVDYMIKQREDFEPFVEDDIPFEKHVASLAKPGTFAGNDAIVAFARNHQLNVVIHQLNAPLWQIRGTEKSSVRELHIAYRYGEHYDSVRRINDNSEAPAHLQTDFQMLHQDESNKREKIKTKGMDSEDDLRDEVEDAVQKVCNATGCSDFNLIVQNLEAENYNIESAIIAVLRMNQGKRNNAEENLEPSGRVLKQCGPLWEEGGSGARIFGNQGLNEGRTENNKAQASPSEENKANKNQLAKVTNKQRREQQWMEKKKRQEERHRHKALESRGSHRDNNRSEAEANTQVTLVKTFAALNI
Take `CCS(=O)(=O)c1ccccc1C(=O)Nc1ccc2sc(C)nc2c1`: the IC50 is > 50 µM (inactive). The figure for `COc1ccc(NC(=O)COc2ccc3ccc(=O)oc3c2)cc1` is > 50 µM (inactive). The figure for `Nc1ccc(NC(=O)c2cc3c(s2)CCC3)cc1[N+](=O)[O-]` is 23.5 µM; for `COc1ccc(NC(=O)Cn2cc(C(=O)c3ccc(F)cc3)c(=O)c3cc(C)ccc32)cc1` it is 23.2 µM; for `Cn1cc(-c2noc(Cc3cccc(C(F)(F)F)c3)n2)ccc1=O` it is > 50 µM (inactive).

In the case of `CC(=O)Nc1ccc(Cc2nc(-c3ccc4c(c3)nc(C)c(=O)n4C3CCCC3)no2)cc1`, the IC50 was > 50 µM (inactive). With `CC(=O)c1ccc(NC(=O)C2CCN(c3cncnc3N3CCCC3)CC2)cc1`, the IC50 was > 50 µM (inactive). The value for `COc1ccc(CCNC(=O)CCCCn2c(=O)c3ccccc3n(Cc3cccc(Cl)c3)c2=O)cc1OC` was 29.9 µM. The figure for `O=C(Cc1ccccc1F)Nc1nc(-c2ccco2)c(-c2ccco2)s1` is > 50 µM (inactive); for `CCOc1ccc(NC(=O)Cn2c(=O)n(CCC(=O)NCc3ccco3)c(=O)c3ccccc32)cc1` it is 11.6 µM. The figure for `CCC1=C(c2ccc(C)cc2)S(=O)(=O)NC1=NCC(=O)NC(C)c1ccccc1` (stereo not given) is 20.5 µM; for `CC(C)(C)C(=O)Nc1ccc(C(=O)Nc2cccc(-c3nnc(-c4ccccc4)o3)c2)cc1` it is 16.8 µM.

For the compound `Cc1cc(C)n2nc(CNc3cccc(Cl)c3)nc2n1`, the IC50 is > 50 µM (inactive). The value for `CC(C)NC(=O)Cn1ccn2nc(-c3ccc(Cl)cc3)cc2c1=O` was > 50 µM (inactive); that for `CN(C)S(=O)(=O)N1CCCC2(C1)Nc1cccnc1NC2=NC1CCCC1` (stereo not given) was > 50 µM (inactive). The figure for `Cn1c(=O)/c(=C/c2ccccc2)[nH]c(=O)/c1=C/c1ccccc1` is 22.4 µM; for `O=C(Nc1ccc2c(c1)OCO2)C1CCN(Cc2nc3ccccc3s2)CC1` it is > 50 µM (inactive). The value for `CN(C(=O)CSc1nnc(-c2cc3ccccc3n2C)o1)c1ccccc1` was > 50 µM (inactive).

Consider `COc1ncccc1CN1CCn2c(Cn3cncn3)cnc2C1C` (stereo not given), for which the IC50 was > 50 µM (inactive).

Consider `O=C(Oc1ccc(-c2cnc3ccccc3n2)cc1)c1ccc(F)cc1`, for which the IC50 is > 50 µM (inactive). Consider `O=C(NCc1ccc(F)cc1)C1CCCN(c2cnc3nccnc3c2)C1` (stereo not given), for which the IC50 was > 50 µM (inactive). The value for `O=C(CNC(=O)c1cccc(F)c1)Nc1nc2ccccc2[nH]1` was 35.4 µM; that for `CCN(CC(=O)Nc1cc(C)on1)c1cccc2ccccc12` was > 50 µM (inactive). The value for `COc1ccc(NC(=O)c2sc(N3CCOCC3)nc2-c2ccccc2)c(OC)c1` was 43.5 µM; that for `COc1ccc(C(=O)NCCc2nnc3ccc(SCC(=O)NCc4ccc(F)cc4)nn23)cc1` was 26.2 µM; that for `Cc1cc(O)c(Oc2cc(C)cc(O)c2O)c(O)c1` was 16.8 µM.

For `O=C1N(Cc2cccc(Cl)c2)CCN1c1ccc2c(c1)CCC2`, the IC50 was > 50 µM (inactive).

As to `CC(OC(=O)c1cn(-c2ccccc2)nc1-c1cccnc1)C(=O)Nc1cccc(S(=O)(=O)N(C)C)c1` (stereo not given), the IC50 is > 50 µM (inactive). The value for `COCCNC(=O)c1ccn(-c2ccc3ccc(-c4cnn(C)c4)cn23)n1` was > 50 µM (inactive); that for `COc1ccc(Cl)cc1-n1nnc(C(=O)N2CCc3ccccc3C2)c1C` was > 50 µM (inactive). The value for `O=C(Nc1ccc(-c2nnc3n2CCCCC3)cc1)c1ccc2c(c1)OCO2` was > 50 µM (inactive); that for `COC(=O)c1sccc1NC(=O)COc1ccsc1C(=O)OC` was > 50 µM (inactive). The figure for `CC1=CC(=O)C(C2=C(O)C(=O)C(C)=CC2=O)=C(O)C1=O` is 25.6 µM; for `CCOc1ccc(NC(=O)c2nc3c(=O)[nH]c4cc(C)ccc4n3n2)cc1` it is > 50 µM (inactive). In the case of `COc1cccc(Cn2nc3n(CC(C)C)c(=O)c4ccc(C(=O)NCC(C)C)cc4n3c2=O)c1`, the IC50 was 10.2 µM.

`Cc1ccc(C)c(CSC2=NCCN2C(=O)c2ccco2)c1`: the IC50 was > 50 µM (inactive). The figure for `NC(=O)Cn1c(=O)n(Cc2ccc(C(=O)NC3CCCC3)cc2)c(=O)c2ccccc21` is > 50 µM (inactive); for `CCCCn1c(=O)c(CCC(=O)OCC(=O)Nc2ccc3c(c2)OCCO3)nc2ccccc21` it is > 50 µM (inactive); for `COc1ccc(N2CCN(Cc3nnnn3Cc3ccc4c(c3)OCO4)CC2)cc1` it is > 50 µM (inactive). Take `CC(C)NS(=O)(=O)c1cccc2c(NC(=O)C(Cc3ccccc3)NC(=O)c3ccccc3)cccc12` (stereo not given): the IC50 is > 50 µM (inactive). The value for `CCCCCC(O)c1c(O)cc2c(c1O)C(=O)c1c(O)cc(O)cc1C2=O` (stereo not given) was > 50 µM (inactive); that for `Cc1cc(N2CCN(c3ncccn3)CC2)nc2ccc(NC(=O)c3ccncc3)cc12` was 31 µM; that for `Cc1cc(C)cc(NC(=O)CN2C(=O)CC(c3ccccc3)Sc3ccccc32)c1` (stereo not given) was > 50 µM (inactive). The value for `CN1C(=O)[C@]23CC4=CC=C[C@H](O)[C@H]4N2C(=O)[C@@]1(CO)SS3` was > 50 µM (inactive); that for `O=[N+]([O-])c1cccc(CSc2nnc(/C=C/c3ccccc3)o2)c1` was > 50 µM (inactive). The value for `O=C(O)c1ccccc1C(=O)Nc1ccc(SC(C(=O)Nc2ccccc2)c2ccccc2)cc1` (stereo not given) was > 50 µM (inactive). For `COc1ccc(C(=O)CCN2CCOCC2)cc1[N+](=O)[O-]`, the IC50 is > 50 µM (inactive). The value for `Fc1ccc(Cn2ccc(-c3cnc(-c4ccccc4)s3)n2)cc1` was > 50 µM (inactive); that for `Clc1cc2nc(N3CCN(c4ccccn4)CC3)c3nncn3c2cc1Cl` was 4.78 µM. The figure for `O=C(NCc1ccc2c(c1)OCO2)c1[nH]nc2c1COc1ccccc1-2` is 24.8 µM; for `Nc1c(C(=O)NCCc2ccccc2)nnn1-c1ccc(F)cc1` it is > 50 µM (inactive). The figure for `CCOc1ccccc1NC(=O)Cn1c(=O)n(CCCC(=O)NCc2ccc(C)cc2)c(=O)c2sccc21` is 2.78 µM; for `O=c1[nH]c2ccc(S(=O)(=O)Nc3ccc(O)c4ccccc34)cc2[nH]1` it is > 50 µM (inactive). Turning to `O=C(NCc1ccc(CN2CCCC2)cc1)c1cc2ccccc2[nH]c1=O`, the IC50 is > 50 µM (inactive).

Regarding `CCOc1ccc(NC(=O)COc2cccc3c2CCN(CC)C3=O)cc1`, the IC50 was > 50 µM (inactive). The value for `O=C1NCc2c1c1c3ccccc3[nH]c1c1[nH]c3ccccc3c21` was > 50 µM (inactive).

As to `COc1cc(Cl)c(C)cc1NC(=O)Cn1c(=O)n(CC(=O)NCc2ccco2)c(=O)c2ccccc21`, the IC50 is > 50 µM (inactive).

Consider `Cc1ccc(C(=O)NCCc2nc(-c3ccc4c(c3)OCO4)n[nH]2)cc1F`, for which the IC50 was > 50 µM (inactive). The figure for `COc1cccc2cccc(O)c12` is > 50 µM (inactive); for `CN(C)S(=O)(=O)c1ccc(N2CCCC2)c(C(=O)Nc2ccc(-c3cn4ccsc4n3)cc2)c1` it is > 50 µM (inactive); for `CCn1c(SCC(=O)c2c(N)n(CC(C)C)c(=O)n(C)c2=O)nnc1-c1ccccc1` it is 25.6 µM. The value for `COc1cc(NC(=O)c2cc(CN3CCOCC3)on2)cc(OC)c1` was > 50 µM (inactive); that for `O=C(Nc1ccc(Cl)cc1F)c1cc(-c2ccccn2)n[nH]1` was > 50 µM (inactive); that for `O=C(Cn1cnc2c(oc3ccccc32)c1=O)NCc1ccccc1Cl` was 36.7 µM. The value for `COC(=O)COc1ccc(/C=N/NC(=O)c2ccc(CN3CCc4ccccc4C3)cc2)cc1` was 43.8 µM.

On to `O=C(CCCCn1c(=O)c2ccccc2n(Cc2ccccc2F)c1=O)NCCc1ccccc1`, for which the IC50 is 17 µM. On to `CC(=O)c1cccc(NC(=O)c2ccc(N3CCCCC3)nn2)c1`, for which the IC50 is > 50 µM (inactive). The figure for `COc1ccc(Nc2nc(C(=O)NCc3ccccc3)cc3occc23)cc1` is > 50 µM (inactive); for `Cc1c(-c2nc(-c3ccccc3Cl)no2)nnn1-c1cccc(F)c1` it is > 50 µM (inactive); for `Cc1nn(-c2ccccc2)c(C)c1C(=O)OCC(=O)Nc1cccc(C#N)c1` it is > 50 µM (inactive). The figure for `CCCn1c(=O)c(-c2ccc(C(=O)NCc3ccc(OC)cc3)cc2)nc2cccnc21` is 6.42 µM. The figure for `CCN1CCCC1CN(Cc1cc2cc(OC)ccc2[nH]c1=O)C(=O)NCc1ccccc1` (stereo not given) is > 50 µM (inactive); for `O=C(NCc1ccc(F)cc1)N1CCC2(C1)Nc1cccnc1NC2=NCc1ccccc1` (stereo not given) it is > 50 µM (inactive); for `Cc1sc(-c2cccnc2)nc1OC(=O)c1ccc(Cl)c(Cl)c1` it is > 50 µM (inactive). As for `O=S(=O)(Nc1ccc2oc(-c3ccncc3)nc2c1)c1ccccc1`, the IC50 was > 50 µM (inactive). The figure for `COc1ccc(Cn2c(SCc3ccc(C(=O)NCCc4ccccc4)cc3)nc3ccncc32)cc1` is > 50 µM (inactive); for `Cc1cc(C)c(NC(=O)CSc2nc3nccnc3c(=O)n2Cc2ccccc2Cl)c(C)c1` it is > 50 µM (inactive); for `COc1ccccc1OCc1ccc(C(=O)Nc2ccc(F)cc2C)cc1` it is > 50 µM (inactive). The value for `COc1ccc(/C=C/c2ccnc3nc(-n4cccc4)nn23)cc1` was > 50 µM (inactive); that for `Cc1c(C(=O)NCc2cccc(Br)c2)oc2c1-c1[nH]ncc1CC2` was 48.2 µM. The figure for `O=C(COC(=O)c1ccc2ncsc2c1)Nc1ccccc1F` is > 50 µM (inactive); for `Cc1cccc(NC(=O)CSc2ncnc3c2sc2nc(CC(C)C)c4c(c23)CCC4)c1` it is > 50 µM (inactive); for `Cc1ccc(-n2nc(C)c3c2NC(=O)CC3C(=O)c2cc3ccccc3o2)cc1C` (stereo not given) it is > 50 µM (inactive). For `CC(C)(C)C(=O)[C@@H]1[C@@H](C(=O)c2ccc3c(c2)OCO3)[C@@]2(C(=O)Nc3ccccc32)[C@H]2c3ccccc3C=CN12`, the IC50 was > 50 µM (inactive). With `O=C(CSc1nnc(CNC(=O)c2ccccc2F)o1)Nc1ccc(OC(F)(F)F)cc1`, the 50% inhibitory concentration (IC50) was 29.6 µM.
